Measured values from patent US20210122763A1, “OGA INHIBITOR COMPOUNDS” (Janssen Pharmaceutica NV, priority 2018, published 2021).

Target: T1, OGA (Homo sapiens, UniProt O60502)
T1 construct: HEK293 cells inducible for P301L mutant human Tau (isoform 2N4R) were established at Janssen; endogenous in cells; host or cells: HEK293 cells inducible for P301L mutant human Tau (2N4R)
T1 sequence (O60502 1-916): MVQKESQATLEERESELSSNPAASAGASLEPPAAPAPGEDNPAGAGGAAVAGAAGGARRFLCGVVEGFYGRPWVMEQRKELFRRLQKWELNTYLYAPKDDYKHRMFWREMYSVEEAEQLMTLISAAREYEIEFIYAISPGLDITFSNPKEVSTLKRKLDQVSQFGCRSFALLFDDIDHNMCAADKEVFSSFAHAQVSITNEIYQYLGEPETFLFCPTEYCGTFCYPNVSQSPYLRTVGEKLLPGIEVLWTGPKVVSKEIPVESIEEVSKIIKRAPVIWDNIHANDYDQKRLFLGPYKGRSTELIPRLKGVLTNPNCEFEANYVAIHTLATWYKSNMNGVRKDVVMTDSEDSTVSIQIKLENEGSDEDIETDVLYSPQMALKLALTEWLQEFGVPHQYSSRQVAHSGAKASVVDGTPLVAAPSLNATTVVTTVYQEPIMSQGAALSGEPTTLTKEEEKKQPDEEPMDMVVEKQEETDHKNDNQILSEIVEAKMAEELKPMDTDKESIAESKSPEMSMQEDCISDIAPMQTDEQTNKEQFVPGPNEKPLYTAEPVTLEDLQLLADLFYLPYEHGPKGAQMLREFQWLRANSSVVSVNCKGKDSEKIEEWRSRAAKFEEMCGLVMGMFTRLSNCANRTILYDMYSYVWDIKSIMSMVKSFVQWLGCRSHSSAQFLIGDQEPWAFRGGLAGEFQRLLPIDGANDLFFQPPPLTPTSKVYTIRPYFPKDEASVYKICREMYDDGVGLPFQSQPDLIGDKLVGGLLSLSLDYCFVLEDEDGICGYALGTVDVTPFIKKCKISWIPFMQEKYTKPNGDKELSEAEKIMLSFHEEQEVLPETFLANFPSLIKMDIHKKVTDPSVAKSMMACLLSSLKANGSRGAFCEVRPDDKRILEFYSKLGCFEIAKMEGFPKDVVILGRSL
Test: OGA cellular assay (ICC detection of O-GlcNAcylated proteins in HEK293 cells inducible for P301L mutant human Tau)
Format: cell-based
Conditions: 6 hours incubation; for Emax: HEK293, HEK293 cells inducible for P301L mutant human Tau, maximum = Thiamet G 200 uM; for EC50: HEK293 cells inducible for P301L mutant human Tau, read-out: Cellular hOGA, pEC50 (converted)
Method in brief: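 HEK293 cells with inducible P301L 2N4R Tau, seeded in low-glucose medium, were exposed to compounds for 6 hours (0.2% DMSO), then PFA-fixed and stained with CTD110.6. Imaging intensity at 488 nm measured O-GlcNAcylation, with Hoechst nuclei counts for toxicity. IC50s came from non-linear regression, with Thiamet G at 200 uM as maximum inhibition.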

SMILES: Cc1cc(OC2CCN([C@H](C)c3nc4c(cc3F)CCO4)CC2)cc(C)n1 (single isomer, unassigned) [Compound 144]
- Emax: 81%
- EC50: 10 nM

SMILES: Cc1cc(OC2CCN([C@@H](C)c3nc4nc(C)sc4cc3F)CC2)cc(C)n1 (single isomer, unassigned) [Compound 83]
- Emax: 86%
- EC50: 31.6 nM

SMILES: Cc1cc(OC2CCN([C@H](C)c3nc4c(cc3F)OCCO4)CC2)cc(C)n1 (single isomer, unassigned) [Compound 148]
- Emax: 82%
- EC50: 50.1 nM

SMILES: Cc1ncc(OC2CCN(C(C)c3nc4c(cc3F)CCO4)CC2)cn1 (centres unmarked) [Compound 95]
- Emax: 92%
- EC50: 39.8 nM
